A value given as a limit tells only on which side of the number the result lay.

The text below walks through data of ChEMBL document CHEMBL1149623, “Identification of antibacterial and antiviral activities of novel fused 1,2,4-triazine esters” (2007).

Holding throughout (format): functional
Assay [1] relates to Staphylococcus epidermidis. The experiment in a line: Antibacterial activity against Staphylococcus epidermidis at 100 mg/mL after 24 hrs by disc diffusion method.
Assay [2] has as its system Streptococcus pyogenes. Put plainly: Antibacterial activity against Streptococcus pyogenes at 100 mg/mL after 24 hrs by disc diffusion method.
The subject of assay [3] is Escherichia coli. Put plainly: Antibacterial activity against Escherichia coli ATCC 25922 at 100 mg/mL after 24 hrs by disc diffusion method.
The subject of assay [4] is Staphylococcus aureus. Put plainly: Antibacterial activity against Staphylococcus aureus ATCC 25923 at 100 mg/mL after 24 hrs by disc diffusion method.
For assay [5], the system named is Staphylococcus aureus. Put plainly: Antibacterial activity against Staphylococcus aureus ATCC 25923 at 200 mg/mL after 24 hrs by disc diffusion method.
In assay [6] the test system is Streptococcus pyogenes. The experiment in a line: Antibacterial activity against Streptococcus pyogenes at 200 mg/mL after 24 hrs by disc diffusion method.
The test system of assay [7] is Staphylococcus epidermidis. Put plainly: Antibacterial activity against Staphylococcus epidermidis at 200 mg/mL after 24 hrs by disc diffusion method.
Assay [8] deals with Escherichia coli. Put plainly: Antibacterial activity against Escherichia coli ATCC 25922 at 200 mg/mL after 24 hrs by disc diffusion method.

Take `COC(=O)CC1NN=C2N(CCN2c2ccc(Cl)cc2)C1=O` (centres undefined): the Inhibition in assay [1] is 16 mm; in the assay on Streptococcus pyogenes [2], 16 mm; in the assay with Escherichia coli [3] it was less than 9 mm; in the assay with Staphylococcus aureus [4], 10 mm.
Consider `CCOC(=O)CC1NN=C2N(CCN2c2ccc(OC)cc2)C1=O` (centres undefined), for which the Inhibition in assay [1] is listed as less than 9 mm; in the assay with Streptococcus pyogenes [2], greater than 20 mm; with Escherichia coli [3], 16 mm; with Staphylococcus aureus [4], less than 9 mm.
With `CCOC(=O)CC1NN=C2N(CCN2c2cccc(Cl)c2)C1=O` (centres undefined), the Inhibition was less than 9 mm in assay [1], greater than 20 mm in the assay on Streptococcus pyogenes [2], greater than 20 mm with Escherichia coli [3] and 10 mm with Staphylococcus aureus [4].
`COC(=O)CC1NN=C2N(CCN2c2ccccc2)C1=O` (centres undefined): the Inhibition in assay [1] is 16 mm; with Streptococcus pyogenes [2], greater than 20 mm; in the assay with Escherichia coli [3] it was less than 9 mm; with Staphylococcus aureus [4], 10 mm.
As for `COC(=O)CC1NN=C2N(CCN2c2ccc(OC)cc2)C1=O` (centres undefined), the Inhibition is 16 mm in assay [1], greater than 20 mm in the assay on Streptococcus pyogenes [2], greater than 20 mm in the assay on Escherichia coli [3] and 10 mm in the assay with Staphylococcus aureus [4].
Consider `CC1(C)S[C@@H]2[C@H](NC(=O)[C@H](N)c3ccccc3)C(=O)N2[C@H]1C(=O)O` [AMPICILLIN], for which the Inhibition in the assay on Staphylococcus aureus [5] is 16 mm; with Streptococcus pyogenes [6], 16 mm; in assay [7] it was 10 mm; in the assay on Escherichia coli [8], 16 mm.
